Assay results from PubChem BioAssay AID2060618 (Molecular Pharmacology Branch, DTP, NCI, 2025).
“And” between values parts separate entries of the source, which are not always exact repeats. Identical values can stand only once.

Test system: 454973-116-R2-J3-PDC spheroids, percent test/control viability
Test: Anticancer human tumor 454973-116-R2-J3-PDC patient-derived pancreatic carcinoma cell line growth inhibition [CLK]
Settings: spheroids with HUVEC and MSC; for viability, T/C: stronger effect = lower value
Source text: A high-throughput screen of multi-cell type tumor spheroids was designed to identify active combinations of […] and targeted small molecules. Complex spheroids include a stromal component modeled by human endothelial cells (HUVEC) and fibroblasts modeled by human mesenchymal stem cells (MSCs). The concentration ranges selected for each drug and investigational agent were based upon clinically achievable concentrations if the clinical Cmax of the agent was known.
Compounds. The drugs and investigational agents: cirtuvivint (SM08502; NSC835563), CC-671 (NSC850746), vemurafenib (NSC761431), tapotoclax (NSC804041), sotorasib (NSC818433), adagrasib (NSC831453), MRTX-1133 (NSC836407), BAY2416964 (NSC825713), copanlisib (NSC816437), inavolisib (NSC800729), abemaciclib (NSC768073), osimertinib (NSC779217), entinostat (NSC756642), eltanexor (KPT-8602, NSC794443), venetoclax (NSC766270), ceralasertib (NSC777638), bortezomib (NSC756655), olaparib (NSC753686), talazoparib (NSC767125), alisertib (NSC759677), peposertib (NSC802822), gemcitabine (NSC613327), 5-fluorouracil (NSC19893), SN-38 (NSC673596), oxaliplatin (NSC266046), paclitaxel (NSC125973), and doxorubicin (NSC123127), were obtained from the National Cancer Institute (NCI) Developmental Therapeutics Program Chemical Repository. The FDA-approved anticancer drug set is available from the Developmental Therapeutics Program at https://dtp.cancer.gov/organization/dscb/obtaining/available plates.htm. […] The stock solutions were prepared in dimethyl sulfoxide (DMSO, Sigma-Aldrich, St. Louis, MO, cat. D2650), except for the platinum complexes which were prepared in saline (Quality Biological, Gaithersburg, MD, cat. 114-055-101), at 800-fold the tested concentration and stored at -70 degrees C prior to their use. All drugs and investigational agents were tested over a range starting from a high concentration at or near the clinical Cmax and decreasing in half-log increments. If the clinical Cmax for an agent had not been determined, the highest concentration tested was 10 microM.
Cell Culture. All cells were maintained in an incubator at 37 degrees C and 5% CO2 with 95% humidity. The PDC lines were cultured according to standard operating procedures established by the NCI PDMR. Briefly, all PDCs were thawed and cultured in Matrigel-coated flasks prepared with a working solution of 1X Ham's F-12 nutrient mix, without supplementation (Invitrogen, Waltham, MA, cat. 11765054), 100 U/mL penicillin-streptomycin (Invitrogen, cat. 15140122), and 2.5% Matrigel (Corning Inc., Corning, NY, cat. 354248) for the first three passages. The 947758-054-R-J2-PDC line was cultured in 6B/Colon 1A media, which includes advanced DMEM/F-12 (Thermo Fisher Scientific, cat. 12634028), 10 mM HEPES (Thermo Fisher Scientific, cat. 15630080), 1X GlutaMAX supplement (Thermo Fisher Scientific, cat. 35050061), 0.1 mg/mL primocin (InvivoGen, cat. ant-pm-2), 10% defined fetal bovine serum, heat inactivated (HyClone Laboratories Inc., cat. SH30070.03HI), 1.25 mM N-Acetyl-L-cysteine (Sigma-Aldrich, cat. A9165), 10 mM nicotinamide (Sigma-Aldrich, cat. N0636), 1X B-27 supplement (Thermo Fisher Scientific, cat. 17504044), 1X N-2 supplement (Thermo Fisher Scientific, cat. 17502048), and 10 microM Y-27632 dihydrochloride (Tocris Bioscience, cat. 1254). The 876862-298-R-J1-PDC was cultured in 6E media, which includes all 6B/Colon 1A media components plus 50% L-WRN conditioned media (ATCC, cat. CRL-3276), 50 ng/mL recombinant human EGF recombinant protein (hEGF; Thermo Fisher Scientific, cat. PHG0311), 10 ng/mL recombinant human fibroblast growth factor 10 (hGFG-10; PeproTech, cat. 100-26), 1 ng/mL recombinant human fibroblast growth factor 2 (hFGF-2; PeproTech, cat. 100-18B), and 1 µM prostaglandin E2 (PGE2; Tocris, cat. 2296). The 227483-062-R1-J1-PDC line was cultured in Panc media, containing all 6E components except hFGF-2, with the addition of 500 nM SB-431542 (Selleckchem, cat. S1067) and 10 nM gastrin (Tocris, cat. 3006). […]
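Also: spheroids exposed to compounds for 7 days before readout.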

NC(=O)C(=Cn1cnc(-c2cc(C(F)(F)F)cc(C(F)(F)F)c2)n1)c1cncnc1 + CN1CCN(c2cc(C(=O)Nc3cc4cc(-c5cnn(C)c5)ccc4cn3)ccn2)CC1
IC50 (curve of first compound, second compound 0.0316 µM): 530 nM | IC50 (curve of first compound, second compound 0.1 µM): 167 nM | IC50 (curve of first compound, second compound 0.316 µM): < 9.49 nM | IC50 (curve of first compound, second compound 1 µM): < 9.49 nM | IC50 (curve of first compound, second compound 3.16 µM): < 9.49 nM | IC50 (curve of first compound, second compound 10 µM): < 9.49 nM | viability, T/C (second compound 0.0316 µM, first compound 0.00949 µM): 93.1% | viability, T/C (second compound 0.0316 µM, first compound 0.03 µM): 96.2% | viability, T/C (second compound 0.0316 µM, first compound 0.0949 µM): 70.5% | viability, T/C (second compound 0.0316 µM, first compound 0.3 µM): 65.9% | viability, T/C (second compound 0.0316 µM, first compound 0.949 µM): 36.9% | viability, T/C (second compound 0.0316 µM, first compound 3 µM): 9.03% | viability, T/C (second compound 0.1 µM, first compound 0.00949 µM): 81.8% | viability, T/C (second compound 0.1 µM, first compound 0.03 µM): 65.2% | viability, T/C (second compound 0.1 µM, first compound 0.0949 µM): 62.8% | viability, T/C (second compound 0.1 µM, first compound 0.3 µM): 41% | viability, T/C (second compound 0.1 µM, first compound 0.949 µM): 20.2% | viability, T/C (second compound 0.1 µM, first compound 3 µM): 2% | viability, T/C (second compound 0.316 µM, first compound 0.00949 µM): 0.71% | viability, T/C (second compound 0.316 µM, first compound 0.03 µM): 0.67% | viability, T/C (second compound 0.316 µM, first compound 0.0949 µM): 0.65% | viability, T/C (second compound 0.316 µM, first compound 0.3 µM): 0.1% | viability, T/C (second compound 0.316 µM, first compound 0.949 µM): 0.08% | viability, T/C (second compound 0.316 µM, first compound 3 µM): 0.11% | viability, T/C (second compound 1 µM, first compound 0.00949 µM): 0.11% | viability, T/C (second compound 1 µM, first compound 0.03 µM): 0.15% | viability, T/C (second compound 1 µM, first compound 0.0949 µM): 1.14% | viability, T/C (second compound 1 µM, first compound 0.3 µM): 0.08% | viability, T/C (second compound 1 µM, first compound 0.949 µM): 0.08% | viability, T/C (second compound 1 µM, first compound 3 µM): 0.06% | viability, T/C (second compound 3.16 µM, first compound 0.00949 µM): 0.08% | viability, T/C (second compound 3.16 µM, first compound 0.03 µM): 0.28% | viability, T/C (second compound 3.16 µM, first compound 0.0949 µM): 0.13% | viability, T/C (second compound 3.16 µM, first compound 0.3 µM): 0.13% | viability, T/C (second compound 3.16 µM, first compound 0.949 µM): 0.1% | viability, T/C (second compound 3.16 µM, first compound 3 µM): 0.72% | viability, T/C (second compound 10 µM, first compound 0.00949 µM): 1.5% | viability, T/C (second compound 10 µM, first compound 0.03 µM): 0.12% | viability, T/C (second compound 10 µM, first compound 0.0949 µM): 0.2% | viability, T/C (second compound 10 µM, first compound 0.3 µM): 0.2% | viability, T/C (second compound 10 µM, first compound 0.949 µM): 0.22% | viability, T/C (second compound 10 µM, first compound 3 µM): 0.23%

NC(=O)C(=Cn1cnc(-c2cc(C(F)(F)F)cc(C(F)(F)F)c2)n1)c1cncnc1
viability, T/C (compound 0.00949 µM): 97.3% and 100% | viability, T/C (compound 0.03 µM): 97% and 95.2% | viability, T/C (compound 0.0949 µM): 83.1% and 78.2% | viability, T/C (compound 0.3 µM): 63.3% and 48.4% | viability, T/C (compound 0.949 µM): 42.4% and 35.4% | viability, T/C (compound 3 µM): 21.7% and 10.8% | IC50 (curve of compound): 614 nM and 362 nM
